{
  "source": "patent US8822691B2",
  "about": "“Pesticidal carboxamides” (Bayer CropScience AG, priority 2009, dated 2014)",
  "assay_type_in_all_cases": "in vivo",
  "key": {"Aulacophora femoralis": {"tested_on": "Aulacophora femoralis", "assay": "Test against cucurbit leaf beetle (Aulacophora femoralis), leaf dip", "conditions": "Aulacophora, foliar, 168 h; active compound concentration of 500 ppm; second instar larvae on cucumber leaves; after 7 days; read-out: insecticidal activity", "procedure,_shortened": "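Cucumber leaves dipped in compound solution (DMF/polyoxyethylene alkyl phenyl ether formulation diluted in water), air-dried and given five second-instar larvae on sterilized soil at 25 °C. Dead larvae counted after 7 days and expressed as % insecticidal activity.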"}, "Boophilus microplus [1]": {"tested_on": "Boophilus microplus", "assay": "Boophilus microplus-test (injection)", "conditions": "Rhipicephalus microplus, 168 h, read-out: activity (mortality in %; 100% means that all eggs are infertile)", "experimental": "(§1) Solvent: dimethyl sulfoxide\nTo produce a suitable preparation of active compound, 10 mg of active compound are dissolved in 0.5 ml solvent, and the concentrate is diluted with solvent to the desired concentration. Five adult engorged female ticks (Boophilus microplus) are injected with 1 μl compound solution into the abdomen. Ticks are transferred into replica plates and incubated in a climate chamber for a period of time. Egg deposition of fertile eggs is monitored.\nAfter 7 days mortality in % is determined. 100% means that all eggs are infertile; 0% means that all eggs are fertile."}, "Spodoptera litura": {"tested_on": "Spodoptera litura", "assay": "Test against tobacco cutworm (Spodoptera litura) larvae, leaf dip", "conditions": "foliar, 168 h; active compound concentration of 100 ppm; third instar larvae on sweet potato leaves; after 7 days; read-out: insecticidal activity"}, "Boophilus microplus [2]": {"tested_on": "Boophilus microplus", "assay": "Boophilus microplus (dip)", "conditions": "Rhipicephalus microplus, 168 h, read-out: activity (mortality)", "experimental": "Solvent: Dimethylsulfoxid\nTo produce a suitable preparation of active compound, 10 mg of active compound are dissolved in 0.5 ml solvent, and the concentrate is diluted with water to the desired concentration. Eight to ten adult engorged female Boophilus microplus ticks are placed in perforated plastic beakers and immersed in aqueous compound solution for one minute. Ticks are transferred to a filter paper in a plastic tray. Egg deposition of fertile eggs is monitored after. After 7 days mortality in % is determined. 100% means that all the ticks have been killed; 0% means that none of the ticks have been killed."}, "Ctenocephalides felis": {"tested_on": "Ctenocephalides felis", "assay": "Ctenocephalides felis-test (CTECFE)", "conditions": "Ctenocephalides felis, in Bos taurus, 48 h, read-out: activity (mortality), application rate of 100 ppm in cattle blood; adult unfed fleas; after 2 days", "experimental": "as §1\nTo produce a suitable preparation of active compound, 10 mg of active compound are dissolved in 0.5 ml solvent, and the concentrate is diluted with cattle blood to the desired concentration. Approximately 20 adult unfed (Ctenocepahlides felis) are placed in flea chambers. The blood chamber, sealed with parafilm on the bottom, are filled with cattle blood supplied with compound solution and placed on top of the flea chamber, so that the fleas are able to suck the blood. The blood chamber is heated to 37° C. whereas the flea chamber is kept at room temperature. After 2 days mortality in % is determined. 100% means that all the fleas have been killed; 0% means that none of the fleas have been killed."}, "Lucilia cuprina": {"tested_on": "Lucilia cuprina", "assay": "Lucilia cuprina (48 h) larval test", "conditions": "Lucilia cuprina, 48 h, read-out: activity (larval mortality)", "experimental": "Species: Lucilia cuprina 1st instar larvae (age 24 hrs)\nas §1\n10 mg active compound are dissolve in 0.5 ml dimethyl sulfoxide. Serial dilutions are made to obtain the desired rates. Approximately 20 Lucilia cuprina 1st instar larvae are transferred into a test tube containing 1 cm^3 of minced horse meat and 0.5 ml aqueous dilution of test compound. After 48 hrs percentage of larval mortality are recorded. 100% efficacy all larvae are killed, % efficacy normally developed larvae after 48 hrs."}, "Musca domestica": {"tested_on": "Musca domestica", "assay": "Musca domestica-test", "conditions": "Musca domestica, 48 h, read-out: activity (mortality)", "experimental": "as §1\nTo produce a suitable preparation of active compound, 10 mg of active compound are dissolved in 0.5 ml solvent, and the concentrate is diluted with water to the desired concentration. Prior to the assay, a piece of kitchen sponge is soaked with a mixture of sugar and compound solution and placed into a container. 10 adults (Musca domestica) are placed into the container and closed with a perforated lid. After 2 days mortality in % is determined. 100% means that all the flies have been killed; 0% means that none of the flies have been killed."}, "Tetranychus urticae": {"tested_on": "Tetranychus urticae", "assay": "Test against two-spotted spider mite (Tetranychus urticae), spray", "conditions": "Tetranychus urticae, 168 h; active compound concentration of 500 ppm; adult mites on kidney bean; after 7 days; read-out: acaricidal activity"}},
  "data": [
    {"molecule": "N#Cc1ccc2cc(C(=O)Nc3c(I)cc(C(F)(C(F)(F)F)C(F)(F)C(F)(F)F)cc3OC(F)F)ccc2n1", "note": "(stereo not shown) [Compound No. 2-176, 2-cyano-N-[2-(difluoromethoxy)-6-iodo-4-(1,1,1,2,3,3,4,4,4-nonafluorobutan-2-yl)phenyl]quinoline-6-carboxamide]", "values": [
      {"measurement": "pest or weed control at 500 ppm", "setting": "Aulacophora femoralis", "result": 100, "unit": "%"},
      {"measurement": "mortality at 0.02 mg", "setting": "Boophilus microplus [1]", "result": 100, "unit": "%"},
      {"measurement": "pest or weed control at 100 ppm", "setting": "Spodoptera litura", "result": 100, "unit": "%"},
      {"measurement": "mortality at 100 ppm", "setting": "Boophilus microplus [2]", "result": 100, "unit": "%"},
      {"measurement": "mortality at 100 ppm", "setting": "Ctenocephalides felis", "result": 90, "unit": "%"},
      {"measurement": "mortality at 100 ppm", "setting": "Lucilia cuprina", "result": 100, "unit": "%"},
      {"measurement": "mortality at 100 ppm", "setting": "Musca domestica", "result": 100, "unit": "%"},
      {"measurement": "pest or weed control at 500 ppm", "setting": "Tetranychus urticae", "result": 100, "unit": "%"}
    ]},
    {"molecule": "N#Cc1ccc2cc(C(=O)Nc3c(Br)cc(C(F)(C(F)(F)F)C(F)(F)Br)cc3OC(F)F)ccc2n1", "note": "(stereo not shown) [Compound No. 2-203, N-[2-bromo-4-(1-bromo-1,1,2,3,3,3-hexafluoropropan-2-yl)-6-(difluoromethoxy)phenyl]-2-cyanoquinoline-6-carboxamide]", "values": [
      {"measurement": "pest or weed control at 500 ppm", "setting": "Aulacophora femoralis", "result": 100, "unit": "%"},
      {"measurement": "mortality at 0.02 mg", "setting": "Boophilus microplus [1]", "result": 100, "unit": "%"},
      {"measurement": "pest or weed control at 100 ppm", "setting": "Spodoptera litura", "result": 100, "unit": "%"},
      {"measurement": "mortality at 100 ppm", "setting": "Boophilus microplus [2]", "result": 100, "unit": "%"},
      {"measurement": "mortality at 100 ppm", "setting": "Ctenocephalides felis", "result": 100, "unit": "%"},
      {"measurement": "mortality at 100 ppm", "setting": "Lucilia cuprina", "result": 100, "unit": "%"},
      {"measurement": "mortality at 100 ppm", "setting": "Musca domestica", "result": 100, "unit": "%"},
      {"measurement": "pest or weed control at 500 ppm", "setting": "Tetranychus urticae", "result": 100, "unit": "%"}
    ]}
  ]
}
